{
  "source": "ChEMBL document CHEMBL5465560",
  "about": "“Selectivity Literature for EUbOPEN Chemogenomic Library” (2024)",
  "key": {"[1]": {"target": "Phosphorylase b kinase gamma catalytic chain, skeletal muscle/heart isoform (Homo sapiens) (UniProt Q16816)", "sequence (Q16816 whole entry, looked up, canonical isoform)": "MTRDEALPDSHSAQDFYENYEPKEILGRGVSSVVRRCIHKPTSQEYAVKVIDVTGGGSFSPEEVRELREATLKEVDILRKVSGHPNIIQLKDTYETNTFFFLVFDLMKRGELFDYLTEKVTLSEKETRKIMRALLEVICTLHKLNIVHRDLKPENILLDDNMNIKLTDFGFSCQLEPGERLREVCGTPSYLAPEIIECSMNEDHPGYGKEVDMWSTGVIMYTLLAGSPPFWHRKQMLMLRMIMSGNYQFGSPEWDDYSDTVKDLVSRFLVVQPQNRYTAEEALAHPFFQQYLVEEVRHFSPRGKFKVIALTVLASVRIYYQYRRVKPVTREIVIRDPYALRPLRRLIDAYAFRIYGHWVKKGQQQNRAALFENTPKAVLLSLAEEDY", "experiment": "Selectivity interaction (KinomeScan (DiscoverX)) EUB0000092b PHKG1", "settings": "at 10 µM"}, "[2]": {"target": "Serine/threonine-protein kinase PLK1 (Homo sapiens, UniProt P53350)", "sequence (P53350 whole entry)": "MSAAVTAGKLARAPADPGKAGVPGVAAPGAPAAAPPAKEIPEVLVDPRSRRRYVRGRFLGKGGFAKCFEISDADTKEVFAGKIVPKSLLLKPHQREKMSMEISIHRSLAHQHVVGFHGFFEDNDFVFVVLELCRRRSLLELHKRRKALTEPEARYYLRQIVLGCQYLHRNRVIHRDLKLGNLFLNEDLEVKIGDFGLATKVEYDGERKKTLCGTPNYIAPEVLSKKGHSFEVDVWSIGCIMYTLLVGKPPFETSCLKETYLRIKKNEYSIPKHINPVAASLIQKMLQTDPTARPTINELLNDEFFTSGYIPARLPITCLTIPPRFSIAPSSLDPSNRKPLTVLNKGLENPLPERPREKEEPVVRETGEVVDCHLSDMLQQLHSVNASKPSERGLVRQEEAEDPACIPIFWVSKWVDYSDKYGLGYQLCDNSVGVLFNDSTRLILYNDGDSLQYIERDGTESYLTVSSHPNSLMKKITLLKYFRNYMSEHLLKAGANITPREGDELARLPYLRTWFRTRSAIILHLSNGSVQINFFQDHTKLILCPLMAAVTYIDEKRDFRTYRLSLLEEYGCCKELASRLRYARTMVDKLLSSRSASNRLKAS", "experiment": "Selectivity interaction (KinomeScan (DiscoverX)) EUB0000655a PLK1", "settings": "at 10 µM"}, "[3]": {"target": "Leukocyte tyrosine kinase receptor (Homo sapiens, UniProt P29376)", "sequence (P29376 whole entry)": "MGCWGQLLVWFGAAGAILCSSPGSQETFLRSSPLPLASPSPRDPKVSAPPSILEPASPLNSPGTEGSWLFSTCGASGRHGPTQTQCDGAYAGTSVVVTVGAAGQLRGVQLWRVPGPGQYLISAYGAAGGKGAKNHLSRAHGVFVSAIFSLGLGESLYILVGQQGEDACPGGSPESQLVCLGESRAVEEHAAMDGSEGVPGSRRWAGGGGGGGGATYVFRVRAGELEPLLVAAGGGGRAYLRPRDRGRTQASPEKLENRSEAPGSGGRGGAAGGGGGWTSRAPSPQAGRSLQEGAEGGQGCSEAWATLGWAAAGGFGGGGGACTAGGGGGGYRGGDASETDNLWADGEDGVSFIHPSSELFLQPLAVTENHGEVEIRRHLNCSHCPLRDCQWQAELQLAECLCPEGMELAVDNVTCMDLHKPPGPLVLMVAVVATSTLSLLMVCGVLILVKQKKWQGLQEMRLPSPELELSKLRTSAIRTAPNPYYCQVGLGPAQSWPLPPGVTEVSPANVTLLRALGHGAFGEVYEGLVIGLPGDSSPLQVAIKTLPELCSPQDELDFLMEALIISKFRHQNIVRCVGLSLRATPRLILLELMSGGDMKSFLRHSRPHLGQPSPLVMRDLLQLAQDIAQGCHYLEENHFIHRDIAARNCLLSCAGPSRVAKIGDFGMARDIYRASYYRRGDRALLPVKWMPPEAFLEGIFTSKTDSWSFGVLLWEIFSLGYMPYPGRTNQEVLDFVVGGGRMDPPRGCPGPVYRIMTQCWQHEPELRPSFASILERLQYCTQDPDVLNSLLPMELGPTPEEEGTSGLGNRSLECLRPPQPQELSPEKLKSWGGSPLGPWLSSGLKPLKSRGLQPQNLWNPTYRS", "experiment": "Selectivity interaction (KinomeScan (DiscoverX)) EUB0001079a LTK", "settings": "at 1 µM"}, "[4]": {"target": "Tyrosine-protein kinase receptor UFO (Homo sapiens) (UniProt P30530)", "sequence (P30530 whole entry)": "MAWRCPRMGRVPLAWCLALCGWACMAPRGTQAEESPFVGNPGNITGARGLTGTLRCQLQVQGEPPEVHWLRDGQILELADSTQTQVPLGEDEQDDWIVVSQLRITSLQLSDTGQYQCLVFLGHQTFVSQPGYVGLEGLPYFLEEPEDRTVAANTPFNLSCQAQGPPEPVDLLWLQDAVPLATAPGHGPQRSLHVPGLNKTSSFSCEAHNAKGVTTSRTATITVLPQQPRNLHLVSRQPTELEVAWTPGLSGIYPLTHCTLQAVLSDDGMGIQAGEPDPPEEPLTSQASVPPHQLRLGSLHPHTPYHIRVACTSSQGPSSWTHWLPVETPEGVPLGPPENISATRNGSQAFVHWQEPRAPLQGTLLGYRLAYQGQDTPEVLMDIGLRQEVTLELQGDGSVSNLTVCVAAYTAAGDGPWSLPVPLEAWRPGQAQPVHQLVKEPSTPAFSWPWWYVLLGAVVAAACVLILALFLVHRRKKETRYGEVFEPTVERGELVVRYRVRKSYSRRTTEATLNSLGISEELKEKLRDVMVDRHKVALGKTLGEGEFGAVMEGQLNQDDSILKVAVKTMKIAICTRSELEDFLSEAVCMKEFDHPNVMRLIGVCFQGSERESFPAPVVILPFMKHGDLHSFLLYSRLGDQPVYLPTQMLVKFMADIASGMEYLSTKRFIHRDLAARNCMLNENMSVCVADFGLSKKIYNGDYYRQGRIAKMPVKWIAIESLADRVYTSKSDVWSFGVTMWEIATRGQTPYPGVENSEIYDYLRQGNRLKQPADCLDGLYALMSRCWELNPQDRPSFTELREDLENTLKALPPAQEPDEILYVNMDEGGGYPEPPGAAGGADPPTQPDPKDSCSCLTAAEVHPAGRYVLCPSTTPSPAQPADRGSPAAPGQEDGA", "experiment": "Selectivity interaction (KinomeScan (DiscoverX)) EUB0001079a AXL", "settings": "at 1 µM"}, "[5]": {"target": "T1, Serine/threonine-protein kinase 3 (Homo sapiens) (UniProt Q13188)", "T1 sequence (whole entry)": "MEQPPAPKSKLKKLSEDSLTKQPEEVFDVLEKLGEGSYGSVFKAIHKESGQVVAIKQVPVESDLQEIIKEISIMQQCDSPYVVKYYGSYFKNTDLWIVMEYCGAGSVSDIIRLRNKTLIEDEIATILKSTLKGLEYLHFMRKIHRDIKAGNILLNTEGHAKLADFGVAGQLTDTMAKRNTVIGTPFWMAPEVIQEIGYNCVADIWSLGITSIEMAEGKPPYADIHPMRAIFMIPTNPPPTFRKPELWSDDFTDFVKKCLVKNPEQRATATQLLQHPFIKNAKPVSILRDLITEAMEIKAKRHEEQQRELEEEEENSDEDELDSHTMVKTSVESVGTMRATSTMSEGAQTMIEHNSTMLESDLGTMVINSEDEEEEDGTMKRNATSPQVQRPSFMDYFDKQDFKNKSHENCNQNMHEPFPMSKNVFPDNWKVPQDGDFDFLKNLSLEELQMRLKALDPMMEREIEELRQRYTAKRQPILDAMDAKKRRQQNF", "settings": "at 10 µM"}, "[6]": {"target": "Casein kinase I isoform gamma-3 (Homo sapiens) (UniProt Q9Y6M4)", "sequence (Q9Y6M4 whole entry, looked up, canonical isoform)": "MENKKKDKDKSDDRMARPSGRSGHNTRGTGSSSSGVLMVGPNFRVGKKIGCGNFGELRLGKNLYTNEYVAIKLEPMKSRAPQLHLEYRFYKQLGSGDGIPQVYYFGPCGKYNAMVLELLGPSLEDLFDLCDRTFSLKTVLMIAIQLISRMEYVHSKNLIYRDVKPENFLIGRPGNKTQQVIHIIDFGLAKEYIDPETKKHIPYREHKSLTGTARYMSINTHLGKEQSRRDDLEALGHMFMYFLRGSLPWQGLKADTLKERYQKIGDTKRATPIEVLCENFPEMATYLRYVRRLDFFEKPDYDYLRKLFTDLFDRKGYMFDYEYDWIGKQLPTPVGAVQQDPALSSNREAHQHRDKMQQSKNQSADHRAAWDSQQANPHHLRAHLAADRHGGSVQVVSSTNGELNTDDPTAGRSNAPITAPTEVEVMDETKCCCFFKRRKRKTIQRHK", "experiment": "Selectivity interaction (Kinase panel (Invitrogen)) EUB0000639a CSNK1G3", "settings": "at 200 nM"}, "[7]": {"target": "T2, Inhibitor of nuclear factor kappa-B kinase subunit beta (Homo sapiens) (UniProt O14920)", "T2 sequence (whole entry)": "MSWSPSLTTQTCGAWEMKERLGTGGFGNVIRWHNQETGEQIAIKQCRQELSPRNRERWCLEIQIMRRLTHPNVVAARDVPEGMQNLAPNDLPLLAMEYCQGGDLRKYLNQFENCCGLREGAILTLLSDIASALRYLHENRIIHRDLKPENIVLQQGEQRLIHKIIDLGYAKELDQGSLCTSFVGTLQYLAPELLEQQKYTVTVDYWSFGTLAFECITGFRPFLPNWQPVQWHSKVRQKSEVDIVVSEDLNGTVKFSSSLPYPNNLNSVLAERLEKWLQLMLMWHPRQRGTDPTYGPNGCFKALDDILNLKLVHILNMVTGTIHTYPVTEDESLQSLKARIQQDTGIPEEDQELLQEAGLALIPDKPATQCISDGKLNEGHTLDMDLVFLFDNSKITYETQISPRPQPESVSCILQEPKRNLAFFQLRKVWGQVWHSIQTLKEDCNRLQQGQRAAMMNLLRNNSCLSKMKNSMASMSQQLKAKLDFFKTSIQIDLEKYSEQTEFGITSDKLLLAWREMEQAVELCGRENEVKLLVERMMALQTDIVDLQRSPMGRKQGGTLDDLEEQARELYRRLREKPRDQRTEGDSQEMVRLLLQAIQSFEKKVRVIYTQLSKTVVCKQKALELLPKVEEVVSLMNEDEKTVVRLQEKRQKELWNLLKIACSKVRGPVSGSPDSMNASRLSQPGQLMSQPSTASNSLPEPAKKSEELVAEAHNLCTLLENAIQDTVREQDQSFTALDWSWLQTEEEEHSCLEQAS", "experiment": "Selectivity interaction (Kinase panel (Invitrogen)) EUB0000639a IKBKB", "settings": "at 200 nM"}, "[8]": {"target": "T3, Mitogen-activated protein kinase kinase kinase 13 (Homo sapiens) (UniProt O43283)", "T3 sequence (whole entry)": "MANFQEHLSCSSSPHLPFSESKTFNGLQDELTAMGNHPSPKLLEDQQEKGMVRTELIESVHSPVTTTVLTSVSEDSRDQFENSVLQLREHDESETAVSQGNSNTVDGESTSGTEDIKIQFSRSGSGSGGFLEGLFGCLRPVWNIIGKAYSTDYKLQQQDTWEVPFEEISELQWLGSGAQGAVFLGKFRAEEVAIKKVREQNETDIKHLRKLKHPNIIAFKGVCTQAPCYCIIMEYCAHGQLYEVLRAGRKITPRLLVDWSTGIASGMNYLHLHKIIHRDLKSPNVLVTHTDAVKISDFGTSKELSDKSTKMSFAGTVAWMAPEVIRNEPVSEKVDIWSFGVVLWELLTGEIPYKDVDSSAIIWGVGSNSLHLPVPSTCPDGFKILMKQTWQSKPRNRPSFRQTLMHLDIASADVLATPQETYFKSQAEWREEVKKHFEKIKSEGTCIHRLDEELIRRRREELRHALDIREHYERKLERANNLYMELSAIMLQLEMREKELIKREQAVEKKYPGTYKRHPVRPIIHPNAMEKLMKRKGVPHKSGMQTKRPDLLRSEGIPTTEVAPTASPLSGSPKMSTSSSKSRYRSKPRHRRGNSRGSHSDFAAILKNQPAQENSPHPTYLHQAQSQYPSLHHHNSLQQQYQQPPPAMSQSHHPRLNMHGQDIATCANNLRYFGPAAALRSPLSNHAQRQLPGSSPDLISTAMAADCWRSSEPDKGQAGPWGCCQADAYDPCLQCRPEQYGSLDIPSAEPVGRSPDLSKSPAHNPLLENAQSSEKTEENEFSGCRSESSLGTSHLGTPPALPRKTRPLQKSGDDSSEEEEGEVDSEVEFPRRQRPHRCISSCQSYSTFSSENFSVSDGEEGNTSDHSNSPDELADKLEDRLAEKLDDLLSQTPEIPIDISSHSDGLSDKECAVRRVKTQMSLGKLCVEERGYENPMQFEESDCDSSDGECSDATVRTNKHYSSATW", "experiment": "Selectivity interaction (KinomeScan (DiscoverX)) EUB0000607a MAP3K13", "settings": "at 10 µM"}, "[9]": {"target": "Non-receptor tyrosine-protein kinase TYK2 (Homo sapiens, UniProt P29597)", "sequence (P29597 whole entry)": "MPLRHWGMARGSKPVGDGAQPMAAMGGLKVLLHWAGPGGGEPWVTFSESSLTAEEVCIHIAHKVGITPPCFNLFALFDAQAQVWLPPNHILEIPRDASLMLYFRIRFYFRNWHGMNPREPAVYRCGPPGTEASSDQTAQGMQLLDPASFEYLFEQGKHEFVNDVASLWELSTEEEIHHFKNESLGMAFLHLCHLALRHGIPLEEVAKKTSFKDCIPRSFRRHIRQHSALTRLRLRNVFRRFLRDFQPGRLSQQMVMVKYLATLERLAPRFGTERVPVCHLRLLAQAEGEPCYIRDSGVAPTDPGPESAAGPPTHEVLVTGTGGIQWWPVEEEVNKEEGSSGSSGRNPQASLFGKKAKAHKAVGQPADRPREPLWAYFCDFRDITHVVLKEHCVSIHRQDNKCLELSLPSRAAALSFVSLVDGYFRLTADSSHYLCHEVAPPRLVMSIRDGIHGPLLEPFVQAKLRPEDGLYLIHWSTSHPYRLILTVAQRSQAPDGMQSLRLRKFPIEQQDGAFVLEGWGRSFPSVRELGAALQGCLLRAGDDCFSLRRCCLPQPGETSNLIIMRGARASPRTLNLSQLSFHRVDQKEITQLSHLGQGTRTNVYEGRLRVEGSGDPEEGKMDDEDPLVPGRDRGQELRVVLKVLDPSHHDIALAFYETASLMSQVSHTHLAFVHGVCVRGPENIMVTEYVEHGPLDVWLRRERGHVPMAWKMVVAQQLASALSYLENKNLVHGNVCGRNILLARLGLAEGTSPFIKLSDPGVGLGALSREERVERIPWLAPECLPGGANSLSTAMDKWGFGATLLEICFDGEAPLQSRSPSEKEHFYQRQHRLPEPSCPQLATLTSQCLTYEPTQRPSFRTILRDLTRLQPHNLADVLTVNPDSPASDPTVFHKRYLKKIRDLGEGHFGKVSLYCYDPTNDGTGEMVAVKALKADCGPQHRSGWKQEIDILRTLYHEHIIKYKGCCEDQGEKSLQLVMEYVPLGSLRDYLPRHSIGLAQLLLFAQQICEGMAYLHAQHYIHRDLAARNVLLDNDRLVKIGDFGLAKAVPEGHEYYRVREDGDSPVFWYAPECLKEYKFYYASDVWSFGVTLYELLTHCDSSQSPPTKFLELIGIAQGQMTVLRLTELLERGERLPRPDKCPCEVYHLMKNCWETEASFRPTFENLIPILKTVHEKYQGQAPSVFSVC", "experiment": "Selectivity interaction (KinomeScan (DiscoverX)) EUB0001049a TYK2", "settings": "at 1 µM"}, "[10]": {"target": "Vascular endothelial growth factor receptor 1 (Homo sapiens) (UniProt P17948)", "experiment": "Selectivity interaction (KinomeScan (DiscoverX)) EUB0000618a FLT1", "settings": "at 10 µM"}, "[11]": {"target": "AP2-associated protein kinase 1 (Homo sapiens, UniProt Q2M2I8)", "experiment": "Selectivity interaction (KinomeScan (DiscoverX)) EUB0000618a AAK1", "settings": "at 10 µM"}, "[12]": {"target": "Tyrosine-protein kinase CSK (Homo sapiens) (UniProt P41240)", "sequence (P41240 2-450 limits assumed)": "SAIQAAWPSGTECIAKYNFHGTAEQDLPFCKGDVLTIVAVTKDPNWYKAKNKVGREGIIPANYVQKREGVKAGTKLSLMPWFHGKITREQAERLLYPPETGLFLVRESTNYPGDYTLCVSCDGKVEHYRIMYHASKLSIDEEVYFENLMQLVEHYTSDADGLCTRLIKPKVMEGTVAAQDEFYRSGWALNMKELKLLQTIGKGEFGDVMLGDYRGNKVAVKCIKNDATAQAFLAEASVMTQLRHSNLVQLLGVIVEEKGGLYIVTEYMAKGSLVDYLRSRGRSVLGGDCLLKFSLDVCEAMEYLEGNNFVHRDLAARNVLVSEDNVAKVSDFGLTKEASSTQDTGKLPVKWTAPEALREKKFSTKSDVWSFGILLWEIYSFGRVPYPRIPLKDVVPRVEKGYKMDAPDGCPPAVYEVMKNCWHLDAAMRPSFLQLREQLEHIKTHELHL", "experiment": "Selectivity interaction (KinomeScan (DiscoverX)) EUB0000618a CSK", "settings": "at 10 µM"}, "[13]": {"target": "Homeodomain-interacting protein kinase 3 (Homo sapiens, UniProt Q9H422)", "experiment": "Selectivity interaction (KinomeScan (DiscoverX)) EUB0001619a HIPK3", "settings": "at 1 µM"}},
  "data": [
    {"smiles": "CCC(=O)N1CCN(c2ccc(-n3c(=O)ccc4cnc5ccc(-c6cnc7ccccc7c6)cc5c43)cc2C(F)(F)F)CC1", "values": [
      {"measurement": "% of control", "setting": "[1]", "value": 100, "unit": "%"}
    ]},
    {"smiles": "CN(C)CCOc1ccc(-c2nc(-c3ccncc3)c(-c3ccc4c(c3)CC/C4=N\\O)[nH]2)cc1", "values": [
      {"measurement": "% of control", "setting": "[2]", "value": 100, "unit": "%"}
    ]},
    {"smiles": "Nc1cnc(N2CCc3cc(S(=O)(=O)Nc4c(F)cc(Cl)cc4F)cc(N4CCCC4=O)c32)nc1", "note": "[TP-020n]", "values": [
      {"measurement": "% of control", "setting": "[3]", "value": 100, "unit": "%"},
      {"measurement": "% of control", "setting": "[4]", "value": 69, "unit": "%"}
    ]},
    {"smiles": "Cc1cc([C@@H](C)Nc2ccccc2C(=O)O)c2nc(N3CCOCC3)cc(=O)n2c1", "note": "[AZD-6482]", "values": [
      {"measurement": "% of control", "setting": "[5]", "value": 66, "unit": "%"}
    ]},
    {"smiles": "CC[C@@H]1[C@H](F)C(=O)N[C@@H]1COc1nccc2cc(C(N)=O)c(OC)cc12", "note": "[ZIMLOVISERTIB]", "values": [
      {"measurement": "% of inhibition", "setting": "[6]", "value": 62.9, "unit": "%"},
      {"measurement": "% of inhibition", "setting": "[7]", "value": 4.3, "unit": "%"}
    ]},
    {"smiles": "CNC(=O)Nc1ccc(-c2nc(N3CC4CCC(C3)O4)c3cnn(C4CCC5(CC4)OCCO5)c3n2)cc1", "values": [
      {"measurement": "% of control", "setting": "[8]", "value": 82, "unit": "%"}
    ]},
    {"smiles": "COc1cc(Nc2nc(C)cc(-c3cnn4nc(OC)ccc34)n2)cc(C(F)(F)F)c1", "values": [
      {"measurement": "% of control", "setting": "[9]", "value": 61, "unit": "%"}
    ]},
    {"smiles": "O[C@H]1CC[C@H](Nc2ncc3nc(Nc4c(F)cc(F)cc4F)n([C@H]4CCOC4)c3n2)CC1", "values": [
      {"measurement": "% of control", "setting": "[10]", "value": 86, "unit": "%"},
      {"measurement": "% of control", "setting": "[11]", "value": 100, "unit": "%"},
      {"measurement": "% of control", "setting": "[12]", "value": 98, "unit": "%"}
    ]},
    {"smiles": "N#Cc1cccc(-c2c[nH]c3ncnc(N4CCOCC4)c23)c1", "values": [
      {"measurement": "% of control", "setting": "[13]", "value": 47, "unit": "%"}
    ]}
  ]
}
